Measurements from patent US20170158599A1, “COMPOSITIONS AND METHODS COMPRISING SALICYLATES AND POLYSALICYLATES” (Biocogent, LLC, priority 2014, published 2017).

Test system: peripheral blood mononuclear cells (PBMC)
Assay: Lipid mediators of the resolution pathways in PBMC with PMA/A23187 stimulation
Type: cell-based
Description: The next two sets of adjacent bars show a comparison of the effects of treatment with PMA plus A23187 in the presence of salicylic acid (on left of each group) and polysalicylic acid (on right of each group) in amounts of 1.6 micrograms per milliliter (μg/mL) and 8 micrograms per milliliter (μg/mL), respectively. […] The resultant SA derivative was evaluated at different doses on the synthesis of 8 intermediate lipids of the resolution pathways in PMBC with PMA/A23187 stimulation. PMBC cells were seeded and allowed to settle for 1 hour; the test compounds were then added and allowed to incubate for an additional hour. The inflammatory stimulus (PMA plus A23187) was added for one hour, and supernatants were collected and analyzed for lipid intermediates.

O=C(O)c1ccccc1O [salicylic acid, 2-hydroxybenzoic acid]
14-HDOHE levels/production (PMA plus A23187, 1.6 and 8 μg/mL (FIG. 1)): noticeable increase over the control | 12-HETE levels/production (PMA plus A23187, 1.6 and 8 μg/mL (FIG. 2)): noticeable increase over the control
